Here are results for one compound from ChEMBL document CHEMBL5154761, “Design, synthesis, and evaluation of 9-(pyrimidin-2-yl)-9H-carbazole derivatives disrupting mitochondrial homeostasis in human lung adenocarcinoma” (Eur J Med Chem, 2022).

The structures appear in SMILES notation. Activity calls are given as the source filed them. No cut-off for these calls is given here.

As a reminder, the inhibition is the share of the control response that was lost under treatment. As a reminder, the IC50 is the concentration that gives 50% inhibition.

Data set [1] relates to A549. The experiment in a line: Inhibition of mitochondrial respiration in human A549 cells assessed as decrease in basal respiration at 2 uM in presence of oligomycin/FCCP/antimycin A /rotenone measured upto 75 mins by seahorse XFe24 flux analyzer. Format: functional, cell-based.
Data set [2] concerns A549. The experiment in a line: Inhibition of colony formation in human A549 cells at 2 uM incubated for 48 hrs followed by culture medium replacement for every 72 hrs and measured after 14 days by crystal violet staining based analysis relative to control. Format: functional. As to conditions: time 14 day. Set-up: scale not given: the % may be the effect or the level left.

For data set [3], the system named is A549. Description: Induction of apoptosis in human A549 cells assessed as necrotic cells at 1 uM incubated for 48 hrs by Annexin V-FITC/propidium iodide staining based flow cytometry analysis (reference value: 0.30%). Format: functional. (A flow cytometer gives signals particle by particle.)
For data set [4], the system named is A549. Description: Induction of mitochondrial membrane potential loss in human A549 cells assessed as reduction in ATP levels at 1 to 2 uM incubated for 12 hrs in presence of oligomycin/FCCP/antimycin A /rotenone by seahorse XFe24 flux analyzer. Format: functional, cell-based. The conditions noted are these: dose 1-2 µM.
In data set [5] the test system is A549. Description: Induction of apoptosis in human A549 cells assessed as increase in Bax protein expression at 0.5 to 1 uM measured after 48 hrs by Western blot assay. Format: functional, cell-based. As to conditions: dose 0.5-1 µM. (In western blotting, separated proteins are transferred to a membrane and probed.)
Data set [6] deals with A549. Description: Induction of apoptosis in human A549 cells assessed as increase in cleaved PARP protein expression at 0.5 to 1 uM measured after 48 hrs by Western blot assay. Format: functional, cell-based. As to conditions: dose 0.5-1 µM.
Data set [7] has as its system A549. The experiment in a line: Induction of cell cycle arrest in human A549 cells assessed as accumulation at S phase at 0.5 uM incubated for 48 hrs by PI staining based flow cytometry analysis (reference value: 12.85%). Format: functional.
Data set [8] deals with A549. The experiment in a line: Cytotoxicity against human A549 cells assessed as cell growth inhibition at 10 uM incubated for 48 hrs by MTT assay relative to control. Format: functional. (Tetrazolium assays rely on reduction of a dye to a coloured formazan, in cell work by metabolically active cells.)
The test system of data set [9] is A549. Description: Inhibition of mitochondrial membrane potential in human A549 cells by JC-1 staining based confocal microscopy. Format: functional, cell-based. The conditions noted are these: dose 1.0 µM, DDE = dose-dependent effect.
Data set [10] deals with A549. The experiment in a line: Induction of apoptosis in human A549 cells assessed as necrotic cells at 0.5 uM incubated for 48 hrs by Annexin V-FITC/propidium iodide staining based flow cytometry analysis (reference value: 0.30%). Format: functional.
The nature of data set [11]: Antiproliferative activity against rat NRK-52E cells assessed as cell growth inhibition incubated for 48 hrs by MTT assay. Format: toxicity, cell-based.
Data set [12] is described as follows: Toxicity in BALB/c mouse xenografted with human A549 cells assessed as effect on body weight at 0.4 to 2 mg/kg, ip administered once daily for 14 days and measured every day. Format: organism-based. The conditions noted are these: in vivo, 336 h, dose 0.4-2 mg/kg, time 14 day.
Data set [13] deals with A549. Description: Induction of apoptosis in human A549 cells assessed as late apoptotic cells at 0.5 uM incubated for 48 hrs by Annexin V-FITC/propidium iodide staining based flow cytometry analysis (reference value: 1.00%). Format: functional.
For data set [14], the system named is A549. The experiment in a line: Induction of cell cycle arrest in human A549 cells assessed as accumulation at S phase at 1 uM incubated for 48 hrs by PI staining based flow cytometry analysis (reference value: 12.85%). Format: functional.

As for `O=C(c1ccc2c(c1)OCO2)c1cccc2c3ccccc3n(-c3ncccn3)c12`, the inhibition entry in the data set on A549 [1] was “Active”. The Activity with A549 [2] is listed as 69%; in the data set on A549 [3] it was 1.8%; with A549 [7] it was 13.84%; with A549 [10], 1.74%; in [12] it was “Non-Toxic”; in the data set on A549 [13], 2.17%. In the data set with A549 [14], the Activity was determined as 14.11%. For the same compound, the result in the data set with A549 [4], in the data set with A549 [5] and with A549 [6] was Active. Further, in the data set on A549 [8], the inhibition at 10 µM was determined as 78.6%. For the same compound, in the data set with A549 [9], the inhibition result is “Dde”. Also, the IC50 at 48 h in data set [11] is 1250 nM.
